Values of other authors in patent US10086032B2, “Method for preparing a Camellia nitidissima Chi lipid-lowering and hypoglycemic agent” (Shenzhen Violin Technology Co., Ltd., priority 2014, dated 2018).

System: model rat with hyperlipidemia
Conditions: high dose group; lovastatin 0.01 g/kg; 43 days intragastric gavage

CC[C@H](C)C(=O)O[C@H]1C[C@@H](C)C=C2C=C[C@H](C)[C@H](CC[C@@H]3C[C@@H](O)CC(=O)O3)[C@H]21 [lovastatin]
HDL-C content of serum: enhance HDL-C content of serum in model rat with hyperlipidemia
